23 molecules from patent US9890147B2 (BAYER PHARMA AKTIENGESELLSCHAFT, priority 2012, dated 2018) can be followed below.

The assay addresses T1, BRD4 (BD1) (Homo sapiens, UniProt O60885).
T1 construct: with relatively long constructs also being possible, preferably amino acids 44-168; made in house; host or cells: E. coli
Briefly: Binding assay BRD4/acetylated peptide H4 (TR-FRET protein-protein interaction assay). From the text: Binding Assay BRD4/Acetylated Peptide H4 (“PRO”)
To assess the BRD4 binding of the substances described in the present application, their ability to inhibit the interaction between BRD4 (BD1) and acetylated histone H4 in a dose-dependent manner was quantified (Filippakopoulos et al., Cell, 2012, 149: 214-231).
For this purpose, use was made of a time-resolved fluorescence resonance energy transfer (TR-FRET) assay which measured binding between N-terminally His6-tagged BRD4 (BD1) (amino acids 67-152, with relatively long constructs also being possible, preferably amino acids 44-168) and a synthetic acetylated histone H4 (Ac—H4) peptide having the sequence GRGK(Ac)GGK(Ac)GLGK(Ac)GGAK(Ac)RHGSGSK-biotin. The recombinant BRD4 protein-produced according to Filippakopoulos et al., Cell, 2012, 149: 214-231—was expressed in E. coli and purified by (Ni-NTA) affinity and (Sephadex G-75) size exclusion chromatography. The Ac—H4 peptide is commercially available, for example from Biosyntan (Berlin, Germany). In a typical assay, 11 different concentrations of each substance (0.1 nM, 0.33 nM, 1.1 nM, 3.8 nM, 13 nM, 44 nM, 0.15 μM, 0.51 μM, 1.7 μM, 5.9 μM and 20 μM) were measured in duplicate on the same microtitre plate. To this end, 100-fold concentrated solutions in DMSO were prepared by serial dilution (1:3.4) of a 2 mM stock solution in a clear 384-well microtitre platte (Greiner Bio-One, Frickenhausen, Germany) 50 nl of these were transferred into a black test plate (Greiner Bio-One, Frickenhausen, Germany). The test was started by addition of 2 μl of a 2.5-fold concentrated BRD4 solution (final concentration usually 10 nM in the […] of the reaction volume) in aqueous assay buffer [50 mM HEPES pH 7.5. 50 mM sodium chloride (NaCl), 0.25 mM CHAPS and 0.05% serum albumin (BSA)] to the substances in the test plate. This was followed by a 10-minute incubation step at 22° C. to pre-equilibrate putative complexes between BRD4 and the substances.
The mixture was then incubated in the dark for one hour at 22° C. and then for at least 3 hours and at most overnight at 4° C. Formation of BRD4/Ac—H4 complexes was determined by measuring the resonance energy transfer from the streptavidin-Eu cryptate to the anti-6His-XL665 antibody in the reaction. To this end, the fluorescence emission was measured at 620 nm and 665 nm after excitation at 330-350 nm in a TR-FRET measuring device, for example a Rubystar or Pherastar (both from BMG Lab Technologies, Offenburg, Germany) or a Viewlux (Perkin-Elmer). The ratio of the emission at 665 nm and at […] was used as an indicator for the amount of BRD4/Ac—H4 complexes formed.
The data obtained (ratios) were normalized, with 0% inhibition corresponding to the mean of the measured values of a set of controls (usually 32 data points) comprising all reagents. Here, 50 nl of DMSO (100%) were used instead of test substances. An inhibition of 100% corresponded to the mean of the measured values of a set of controls (usually 32 data points) comprising all reagents except for BRD4. The IC50 was determined by regression analysis based on a 4-parameter equation (minimum, maximum, IC50, Hill; Y=Max+(Min−Max)/(1+(X/IC 50)^Hill)).

The IC50 is the midpoint of a concentration-inhibition curve. Read a low IC50 as inhibition by little substance.

The molecule `CNC(=O)N1N=C(c2ccc(-c3ccccc3C(=O)O)cc2)c2cc(OC)c(OC)cc2CC1C` (racemic) [Example 6, (±)-4′-{7,8-dimethoxy-4-methyl-3-[(methylamino)carbonyl]-4,5-dihydro-3H-2,3-benzodiazepin-1-yl}biphenyl-2-carboxylic acid] registered an IC50 of 0.91 µM.
The molecule `CNC(=O)N1N=C(c2ccc(N3CCC(CCO)CC3)cc2)c2cc(OC)c(OC)cc2CC1C` (racemic) [Example 183, (±)-1-{4-[4-(2-hydroxyethyl)piperidin-1-yl]phenyl}-7,8-dimcthoxy-N,4-dimethyl-4,5-dihydro-3H-2,3-benzodiazepine-3-carboxamide] returned an IC50 of 0.04 µM.
Next, `CNC(=O)N1N=C(c2ccc(N3CCC(=O)CC3)cc2)c2cc(OC)c(OC)cc2CC1C` (racemic) [Example 196, (±)-7,8-dimethoxy-N,4-dimethyl-1-[4-(4-oxopiperidin-1-yl)phenyl]-4,5-dihydro-3H-2,3-benzodiazepine-3-carboxamide]: 0.09 µM; `CNC(=O)N1N=C(c2ccc(N3CCN(CC(F)(F)F)CC3)cc2)c2cc(OC)c(OC)cc2CC1C` (racemic) [Example 197, (±)-7,8-dimethoxy-N,4-dimethyl-1-{4-[4-(2,2,2-trifluoroethyl)piperazin-1-yl]phenyl}-4,5-dihydro-3H-2,3-benzodiazepine-3-carboxamide]: 0.08 µM.
To `CNC(=O)N1N=C(c2ccc(N3CCN(C)CC3)cc2)c2cc(O)c(O)cc2CC1C` (racemic) [Example 199, (±)-7,8-Dihydroxy-N,4-dimethyl-1-[4-(4-methylpiperazin-1-yl)phenyl]-4,5-dihydro-3H-2,3-benzodiazepine-3-carboxamide] belongs 1.02 µM; to `CCC1Cc2cc(OC)c(OC)cc2C(c2ccc(N3CCN(C)CC3)cc2)=NN1C(=O)NC` (racemic) [Example 201, (±)-4-ethyl-7,8-dimethoxy-N-methyl-1-[4-(4-methylpiperazin-1-yl)phenyl]-4,5-dihydro-3H-2,3-benzodiazepine-3-carboxamide], 1.37 µM.
For the molecule `CCC1Cc2cc(OC)c(OC)cc2C(c2ccc(N3CCNCC3)cc2)=NN1C(=O)NC` (racemic) [Example 202, (±)-4-ethyl-7,8-dimethoxy-N-methyl-1-[4-(piperazin-1-yl)phenyl]-4,5-dihydro-3H-2,3-benzodiazepine-3-carboxamide], the IC50 worked out at 1.23 µM.
Next, `CCC1Cc2cc(OC)c(OC)cc2C(c2ccc(N3CC(F)C3)cc2)=NN1C(=O)NC` (racemic) [Example 204, (±)-4-ethyl-1-[4-(3-fluoroazetidin-1-yl)phenyl]-7,8-dimethoxy-N-methyl-4,5-dihydro-3H-2,3-benzodiazepine-3-carboxamide]: 1.22 µM; `CCC1Cc2cc(OC)c(OC)cc2C(c2ccc(N3CCN(C(C)=O)CC3)cc2)=NN1C(=O)NC` (racemic) [Example 205, (±)-1-[4-(4-acetylpiperazin-1-yl)phenyl]-4-ethyl-7,8-dimethoxy-N-methyl-4,5-dihydro-3H-2,3-benzodiazepine-3-carboxamide]: 1.08 µM.
Next, `CCC1Cc2cc(OC)c(OC)cc2C(c2ccc(N3CCS(=O)(=O)CC3)cc2)=NN1C(=O)NC` (racemic) [Example 206, (±)-1-[4-(1,1-dioxidothiomorpholin-4-yl)phenyl]-4-ethyl-7,8-dimethoxy-N-methyl-4,5-dihydro-3H-2,3-benzodiazepine-3-carboxamide]: 0.93 µM; `CCC1Cc2cc(OC)c(OC)cc2C(c2ccc(N3CCC(O)CC3)cc2)=NN1C(=O)NC` (racemic) [Example 207, (±)-4-ethyl-1-[4-(4-hydroxypiperidin-1-yl)phenyl]-7,8-dimethoxy-N-methyl-4,5-dihydro-3H-2,3-benzodiazepine-3-carboxamide]: 1.22 µM; `CCC1Cc2cc(OC)c(OC)cc2C(c2ccc(N3CCOCC3)cc2)=NN1C(=O)NC` (racemic) [Example 208, (±)-4-ethyl-7,8-dimethoxy-N-methyl-1-[4-(morpholin-4-yl)phenyl]-4,5-dihydro-3H-2,3-benzodiazepine-3-carboxamide]: 1.1 µM.
To `CNC(=O)N1N=C(c2ccc(N3CCNCC3)cc2)c2cc(Cl)c(OC(F)(F)F)cc2CC1C` (racemic) [Example 211, (±)-8-chloro-N,4-dimethyl-1-[4-(piperazin-1-yl)phenyl]-7-(trifluoromethoxy)-4,5-dihydro-3H-2,3-benzodiazepine-3-carboxamide] belongs 0.3 µM; to `CNC(=O)N1N=C(c2ccc(N3CCN(S(C)(=O)=O)CC3)cc2)c2cc(Cl)c(OC(F)(F)F)cc2CC1C` (racemic) [Example 214, (±)-8-chloro-N,4-dimethyl-1-{4-[4-(methylsulphonyl)piperazin-1-yl]phenyl}-7-(trifluoromethoxy)-4,5-dihydro-3H-2,3-benzodiazepine-3-carboxamide], 1.23 µM.
As for `CNC(=O)N1N=C(c2ccc(N3CCN(C(C)=O)CC3)cc2)c2ccc(OC(F)(F)F)cc2CC1C` (racemic) [Example 217, (±)-1-[4-(4-acetylpiperazin-1-yl)phenyl]-N,4-dimethyl-7-(trifluoromethoxy)-4,5-dihydro-3H-2,3-benzodiazepine-3-carboxamide], the IC50 was determined as 1.73 µM.
Next, `CCC1Cc2cc(OC)c(OC)cc2C(c2ccc(-c3ccc(F)cc3)cc2)=NN1C(=O)NC` (racemic) [Example 221, (±)-4-ethyl-1-(4′-fluorobiphenyl-4-yl)-7,8-dimethoxy-N-methyl-4,5-dihydro-3H-2,3-benzodiazepine-3-carboxamide]: 1.98 µM.
Next, `CCC1Cc2cc(OC)c(OC)cc2C(c2ccc(-c3c(C)noc3C)cc2)=NN1C(=O)NC` (racemic) [Example 223, (±)-1-[4-(3,5-dimethyl-1,2-oxazol-4-yl)phenyl]-4-ethyl-7,8-dimethoxy-N-methyl-4,5-dihydro-3H-2,3-benzodiazepine-3-carboxamide]: 0.32 µM.
The molecule `CNC(=O)N1N=C(c2ccc(-c3c(C)nn(C)c3C)cc2)c2cc(OC)c(OC)cc2CC1C(C)C` (racemic) [Example 224, (±)-4-isopropyl-7,8-dimethoxy-N-methyl-1-[4-(1,3,5-trimethyl-1H-pyrazol-4-yl)phenyl]-4,5-dihydro-3H-2,3-benzodiazepine-3-carboxamide] yielded an IC50 of 7.69 µM.
To `CCC1Cc2cc(OC)c(OC)cc2C(c2ccc(N3CCCC3=O)cc2)=NN1C(=O)NC` (racemic) [Example 225, (±)-4-ethyl-7,8-dimethoxy-N-methyl-1-[4-(2-oxopyrrolidin-1-yl)phenyl]-4,5-dihydro-3H-2,3-benzodiazepine-3-carboxamide] belongs 1.72 µM.
Consider `CCC1Cc2cc(OC)c(OC)cc2C(c2ccc(N3CCOCC3=O)cc2)=NN1C(=O)NC` (racemic) [Example 226, (±)-4-ethyl-7,8-dimethoxy-N-methyl-1-[4-(3-oxomorpholin-4-yl)phenyl]-4,5-dihydro-3H-2,3-benzodiazepine-3-carboxamide], for which the IC50 came out at 8.76 µM.
To `CCC1Cc2cc(OC)c(OC)cc2C(c2ccc(N3CCCCC3=O)cc2)=NN1C(=O)NC` (racemic) [Example 227, (±)-4-ethyl-7,8-dimethoxy-N-methyl-1-[4-(2-oxopiperidin-1-yl)phenyl]-4,5-dihydro-3H-2,3-benzodiazepine-3-carboxamide] belongs 6.28 µM.
Next, `CCC1Cc2cc(OC)c(OC)cc2C(c2ccc(N3CCOC3=O)cc2)=NN1C(=O)NC` (racemic) [Example 228, (±)-4-ethyl-7,8-dimethoxy-N-methyl-1-[4-(2-oxo-1,3-oxazolidin-3-yl)phenyl]-4,5-dihydro-3H-2,3-benzodiazepine-3-carboxamide]: 1.69 µM; `CNC(=O)N1N=C(c2ccc(Cl)cc2)c2ccc(N3CCCCC3=O)cc2CC1C` (racemic) [Example 231, (±)-1-(4-chlorophenyl)-N,4-dimethyl-7-(2-oxopiperidin-1-yl)-4,5-dihydro-3H-2,3-benzodiazepine-3-carboxamide]: 3.37 µM.
